Test results: the NIST ThermoML archive (doi:10.1016/j.fluid.2013.11.028)

Assays:
[1] = Liquid; for mass density: 101 kPa, Vibrating tube method; for viscosity: 101.33 kPa, Falling or rolling sphere viscometry
[2] = wn = mass fraction of the nth substance listed; conditions: 101 kPa, Liquid; for viscosity: Falling or rolling sphere viscometry; for binary diffusion coefficient: Taylor dispersion method; for mass density: Vibrating tube method
[3] = xn = mol fraction of the nth substance listed; conditions: 101 kPa, Liquid, Taylor dispersion method, x1 = 0.2

CN(C)CCN(C)C [N,N,N',N'-tetramethyl-1,2-diaminoethane]
[1]
Conditions	mass density [kg/m3]
303.15 K	767.3
308.15 K	762.9
313.15 K	759.1
318.15 K	754.7
323.15 K	750.3

CNCCCN [N-methyl-1,3-diaminopropane] + O
[2]
Conditions	binary diffusion coefficient [m2/s]	mass density [kg/m3]	viscosity [mPa·s]
303.15 K, w1 = 0	8.45e-10	–	–
303.15 K, w1 = 0.1	7.35e-10	988.5	1.231
303.15 K, w1 = 0.2	6.87e-10	983.9	2.005
303.15 K, w1 = 0.3	6.4e-10	980.7	3.41
303.15 K, w1 = 0.4	6.08e-10	975.9	5.515
303.15 K, w1 = 1	–	849.1	–
308.15 K, w1 = 0	9.56e-10	–	–
308.15 K, w1 = 0.1	8.63e-10	986.7	1.09
308.15 K, w1 = 0.2	7.69e-10	981.6	1.731
308.15 K, w1 = 0.3	7.26e-10	977.7	2.823
308.15 K, w1 = 0.4	6.92e-10	972.2	4.451
308.15 K, w1 = 1	–	844.7	–
313.15 K, w1 = 0	1.05e-09	–	–
313.15 K, w1 = 0.1	9.36e-10	984.7	0.976
313.15 K, w1 = 0.2	8.72e-10	979.1	1.512
313.15 K, w1 = 0.3	8.25e-10	974.5	2.391
313.15 K, w1 = 0.4	7.77e-10	968.4	3.66
313.15 K, w1 = 1	–	840.3	–
318.15 K, w1 = 0	1.18e-09	–	–
318.15 K, w1 = 0.1	1.05e-09	982.6	0.887
318.15 K, w1 = 0.2	9.72e-10	976.4	1.333
318.15 K, w1 = 0.3	9.22e-10	971.3	2.059
318.15 K, w1 = 0.4	8.73e-10	964.6	2.979
318.15 K, w1 = 1	–	835.9	–
323.15 K, w1 = 0	1.31e-09	–	–
323.15 K, w1 = 0.1	1.18e-09	980.2	0.808
323.15 K, w1 = 0.2	1.09e-09	973.7	1.184
323.15 K, w1 = 0.3	1.03e-09	967.9	1.769
323.15 K, w1 = 0.4	9.77e-10	960.7	2.525
323.15 K, w1 = 1	–	831.5	–

O [water]
[1]
Conditions	viscosity [mPa·s]
303.15 K	0.789
308.15 K	0.714
313.15 K	0.651
318.15 K	0.598
323.15 K	0.541

CN(C)CCCN(C)C [N,N,N',N'-tetramethyl-1,3-propanediamine] + O
[2]
Conditions	binary diffusion coefficient [m2/s]	mass density [kg/m3]	viscosity [mPa·s]
303.15 K, w1 = 0	7.01e-10	–	–
303.15 K, w1 = 0.1	4.86e-10	983.3	1.345
303.15 K, w1 = 0.2	3.74e-10	972.5	2.335
303.15 K, w1 = 0.3	3.05e-10	960.1	3.923
303.15 K, w1 = 0.4	2.56e-10	944.6	6.081
303.15 K, w1 = 1	–	774.8	–
308.15 K, w1 = 0	7.99e-10	–	–
308.15 K, w1 = 0.1	5.53e-10	981.4	1.183
308.15 K, w1 = 0.2	4.41e-10	969.8	1.985
308.15 K, w1 = 0.3	3.57e-10	956.7	3.192
308.15 K, w1 = 0.4	2.89e-10	940.6	4.853
308.15 K, w1 = 1	–	770.9	–
313.15 K, w1 = 0	9.04e-10	–	–
313.15 K, w1 = 0.1	6.16e-10	979.3	1.051
313.15 K, w1 = 0.2	4.83e-10	967	1.709
313.15 K, w1 = 0.3	4.09e-10	953.1	2.669
313.15 K, w1 = 0.4	3.45e-10	936.6	3.838
313.15 K, w1 = 1	–	767.4	–
318.15 K, w1 = 0	1.01e-09	–	–
318.15 K, w1 = 0.1	6.82e-10	977	0.941
318.15 K, w1 = 0.2	5.41e-10	964	1.488
318.15 K, w1 = 0.3	4.58e-10	949.5	2.264
318.15 K, w1 = 0.4	3.82e-10	932.5	3.182
318.15 K, w1 = 1	–	765	–
323.15 K, w1 = 0	1.08e-09	–	–
323.15 K, w1 = 0.1	7.48e-10	974.6	0.846
323.15 K, w1 = 0.2	6.07e-10	961	1.311
323.15 K, w1 = 0.3	5.14e-10	945.8	1.945
323.15 K, w1 = 0.4	4.32e-10	928.4	2.681
323.15 K, w1 = 1	–	761.4	–

OCCO [1,2-ethanediol] + O
[3]
Conditions	binary diffusion coefficient [m2/s]
303.15 K	8.21e-10
308.15 K	9.03e-10
313.15 K	9.98e-10
318.15 K	1.09e-09
323.15 K	1.2e-09

NCCNCCN [di(2-aminoethyl)amine]
[1]
Conditions	mass density [kg/m3]
303.15 K	942.1
308.15 K	937.9
313.15 K	933.8
318.15 K	929.6
323.15 K	925.5

CN(C)CCCN(C)C [N,N,N',N'-tetramethyl-1,3-propanediamine]
[1]
Conditions	mass density [kg/m3]
303.15 K	774.8
308.15 K	770.9
313.15 K	767.4
318.15 K	765
323.15 K	761.4

CNCCCN [N-methyl-1,3-diaminopropane]
[1]
Conditions	mass density [kg/m3]
303.15 K	849.1
308.15 K	844.7
313.15 K	840.3
318.15 K	835.9
323.15 K	831.5

CN(C)CCN(C)C [N,N,N',N'-tetramethyl-1,2-diaminoethane] + O
[2]
Conditions	binary diffusion coefficient [m2/s]	mass density [kg/m3]	viscosity [mPa·s]
303.15 K, w1 = 0	7.34e-10	–	–
303.15 K, w1 = 0.1	5.61e-10	982.9	1.34
303.15 K, w1 = 0.2	4.62e-10	972.6	2.338
303.15 K, w1 = 0.3	3.74e-10	962.1	3.963
303.15 K, w1 = 0.4	3.12e-10	947.8	6.207
303.15 K, w1 = 1	–	767.3	–
308.15 K, w1 = 0	8.35e-10	–	–
308.15 K, w1 = 0.1	6.29e-10	981	1.179
308.15 K, w1 = 0.2	5.25e-10	970	1.983
308.15 K, w1 = 0.3	4.4e-10	958.6	3.243
308.15 K, w1 = 0.4	3.66e-10	943.7	4.925
308.15 K, w1 = 1	–	762.9	–
313.15 K, w1 = 0	9.38e-10	–	–
313.15 K, w1 = 0.1	7.16e-10	979	1.046
313.15 K, w1 = 0.2	5.74e-10	967.3	1.704
313.15 K, w1 = 0.3	4.91e-10	955.1	2.705
313.15 K, w1 = 0.4	4.25e-10	939.5	3.941
313.15 K, w1 = 1	–	759.1	–
318.15 K, w1 = 0	1.05e-09	–	–
318.15 K, w1 = 0.1	8.01e-10	976.7	0.933
318.15 K, w1 = 0.2	6.38e-10	964.4	1.481
318.15 K, w1 = 0.3	5.53e-10	951.5	2.287
318.15 K, w1 = 0.4	4.61e-10	935.3	3.205
318.15 K, w1 = 1	–	754.7	–
323.15 K, w1 = 0	1.18e-09	–	–
323.15 K, w1 = 0.1	9.51e-10	974.3	0.839
323.15 K, w1 = 0.2	7.5e-10	961.4	1.301
323.15 K, w1 = 0.3	6.29e-10	947.8	1.96
323.15 K, w1 = 0.4	5.31e-10	931	2.682
323.15 K, w1 = 1	–	750.3	–

NCCNCCN [di(2-aminoethyl)amine] + O
[2]
Conditions	binary diffusion coefficient [m2/s]	mass density [kg/m3]	viscosity [mPa·s]
303.15 K, w1 = 0	7.45e-10	–	–
303.15 K, w1 = 0.1	7.01e-10	998.5	1.211
303.15 K, w1 = 0.2	6.64e-10	1002.9	2.011
303.15 K, w1 = 0.3	6.14e-10	1009.8	3.572
303.15 K, w1 = 0.4	5.57e-10	1016.2	7.31
303.15 K, w1 = 1	–	942.1	–
308.15 K, w1 = 0	8.43e-10	–	–
308.15 K, w1 = 0.1	7.93e-10	996.7	1.08
308.15 K, w1 = 0.2	7.61e-10	1000.8	1.751
308.15 K, w1 = 0.3	7.14e-10	1007.2	3.015
308.15 K, w1 = 0.4	6.6e-10	1013	5.915
308.15 K, w1 = 1	–	937.9	–
313.15 K, w1 = 0	9.5e-10	–	–
313.15 K, w1 = 0.1	8.95e-10	994.8	0.97
313.15 K, w1 = 0.2	8.52e-10	998.7	1.54
313.15 K, w1 = 0.3	8.13e-10	1004.5	2.582
313.15 K, w1 = 0.4	7.41e-10	1009.9	4.859
313.15 K, w1 = 1	–	933.8	–
318.15 K, w1 = 0	1.03e-09	–	–
318.15 K, w1 = 0.1	1.01e-09	992.8	0.88
318.15 K, w1 = 0.2	9.38e-10	996.3	1.366
318.15 K, w1 = 0.3	8.82e-10	1001.8	2.234
318.15 K, w1 = 0.4	8.55e-10	1006.7	4.049
318.15 K, w1 = 1	–	929.6	–
323.15 K, w1 = 0	1.19e-09	–	–
323.15 K, w1 = 0.1	1.12e-09	990.6	0.799
323.15 K, w1 = 0.2	1.06e-09	993.9	1.221
323.15 K, w1 = 0.3	1.01e-09	998.9	1.95
323.15 K, w1 = 0.4	9.61e-10	1003.4	3.302
323.15 K, w1 = 1	–	925.5	–
